Reference: patent US20220290196A1, “GENETICALLY ENGINEERED MICROBES AND BIOSYNTHETIC METHODS” (The Regents of the University of California, priority 2019, published 2022)
Values joined by “and” are separate entries in the source; they are usually repeats but may differ in a detail not shown here. Identical values can stand only once.

How the values were obtained:
Tar14 = Tar14 in vitro halogenation assay with substrate analogues; type: biochemical, Saccharomonospora sp. CNQ-490; conditions: substrate 0.25 mM, Tar14 5 μM, 30° C., 4 h; for Enzyme assays, % conversion, Tar14, Br^−: KBr 100 mM; for Enzyme assays, % conversion, Tar14, Cl^−: NaCl 100 mM
Method: Tar14. Tar14 reaction mixture of total volume 100 μL in 1.5 mL Eppendorf tube was composed of the following components:
Buffer (10 mM Tris, 10% glycerol, pH 7.6): up to 100 μL

Tar13 = Tar13 in vitro assay with substrate analogues; type: biochemical, Saccharomonospora sp. CNQ-490; conditions: for Enzyme assays, % conversion, Tar13: substrate 0.25 mM, Tar13 20 μM, overnight at 30° C.
Method: Tar13. Upon testing different reaction compositions (buffers, concentration of ascorbic acids and hemin, pH), the following conditions were found as optimal:
(§1) Buffer: up to 50 μL (50 mM Tris, 500 mM NaCl 10% glycerol, pH 8.0)
(§2) In a separate Eppendorf tube premix:
Add substrate solution to the enzyme mixture to start reaction
When Tar13 was directly added to the enzyme reaction, immediate protein precipitation occurred. The same was observed if the enzyme was not pre-mixed with hemin and ascorbic acid. Full substrate conversion was achieved after overnight incubation at 30° C. in 1.5 mL Eppendorf tube with shaking. The reactions were quenched by addition of equal volume of HPLC grade methanol.

Tar16 = assay: Coupled Tar13/Tar16 assay (Tar16 substrate generated in situ by Tar13); type: biochemical, Saccharomonospora sp. CNQ-490; conditions: for Enzyme assays, % conversion, Tar16: substrates generated in situ by Tar13, Tar16 10 μM, overnight at 30° C.
Method: Coupled Tar13 Tar]6. The reaction mixture of total volume 100 μL in 1.5 mL Eppendorf tube was composed of the following components:
Buffer: up to 50 μL (50 mM Tris, 500 mM NaCl 10% glycerol, pH 8.0
Substrate (for Tar13 enzyme): 0.25 μM
as §2
Buffer: up to […] (50 mM Tris, 500 mM NaCl 10% glycerol, pH 8.0)
Add substrate solution to the enzyme mixture to start reaction.
No difference in conversion was observed when Tar16 was added into the assay mixture either together with Tar13, or after 2 h of incubation at 30° C., or after overnight incubation at 30° C., followed by another 4 h of incubation after addition of Tar16. Therefore, for convenience, all components were mixed at the same time point, the reactions were incubated at 30° C. overnight, after which the assays were quenched by addition of equal volume of HPLC grade methanol.

[1] = system: S. coelicolor M1146-tarM1Δtar14; assay: Feeding/chemical complementation experiment, incorporation into taromycin; type: cell-based, Streptomyces coelicolor; conditions: for Feeding, % incorporation, A1 + A13 domain: incorporation at residue-1 and residue-13; for Feeding, % incorporation, A1 + A13 domain / Feeding, % incorporation, A1 domain: analogue fed at 2 mM, judged by comparison to taromycin yields by S. coelicolor M1146-tarM1; for Feeding, % incorporation, A1 domain: incorporation only at residue-1
Method: For taromycin production, seed culture in TSBY medium was inoculated with corresponding S. coelicolor spore suspension (collected from fresh SFM plates) and was cultured for 36-48 h till a dense creamy consistency was reached. Kanamycin at 10 μg mL^−1 final concentration was added to the seed cultures of S. coelicolor M1146-pCAP01-tarM1 and S. coelicolor M1146-pCAP01-tarM1Δtar14. Inocula of seed culture (5%, v/v) were used for fermentation in MP medium (1% glucose, 1% soluble starch, 0.4% peptone, 0.3% yeast extract, 0.3% soytone, 0.2% meat extract, 0.2% CaCO3, and 0.5% NaCl, pH 7.2). Fermentation was carried out at 30° C. and 220 rpm in a rotary incubator for 6 days. A maximum of 40 mL of production medium was added into 250 mL flask with metal springs.
S. coelicolor M1146-pCAP01-tarM1Δtar14 cultures were grown as described in Section 3 for taromycin production. After 18 and 36 h of cultivation, tryptophan analogues in the form of water suspension were added to the production cultures to a final concentration 2 mM. The cultures were further incubated for 5 days before extraction and further analysis by LC-HRMS^n. All experiments were repeated independently twice with three replicates for each compound. In parallel, cultures of S. coelicolor M1146-pCAP01-tarM1 and S. coelicolor M1146-pCAP01-tarM1Δtar14 were grown as controls.
To analyze production of taromycins and analogues, solid phase extraction of the culture supernatants was performed with Amberlite XAD-16 resin (SIGMA). For analytical purposes around 1 g of washed and equilibrated resin was added to 20 mL of supernatant followed by shaking for 30-60 min. Samples were then spun down and decanted. The resin was washed twice with water (15 mL), before elution with methanol (5 mL). The methanol extracts from the resin were used for LCMS analysis without additional concentration step.

[2] = system: Tar14, Tar13, and Tar13/16; assay: In vitro assays with Tar14, Tar13, and Tar13/16 (FIG. 20 summary); type: biochemical, Saccharomonospora sp. CNQ-490; conditions: Tar14, Tar13, Tar13/16
[3] = substrate: N[C@@H](Cc1c[nH]c2cc(Cl)ccc12)C(=O)O; assay: Kinetic characterization of Tar13-catalyzed oxidation of L-6-Cl-tryptophan; type: biochemical, Saccharomonospora sp. CNQ-490; conditions: other: Tar13, L-6-Cl-Trp, 30° C., pH 8.0
Method: To determine kinetic parameters for Tar13-catalyzed oxidation of L-6-Cl-tryptophan, the following reaction conditions were used:
as §1, §2
The enzyme mixture was added to the substrate solution to start the reactions. The reactions were incubated at 30° C. for 5, 10, 15, 30 min, after which the assays were quenched by addition of equal volume of HPLC grade methanol and frozen at −70° C. till further analysis by HPLC. All assays were performed in triplicates for each substrate concentration and every time point. In parallel, for each time point and substrate concentration, assays with no added enzyme were used as controls. Prior HPLC analysis (method 5), L-tryptophan was added to the quenched reaction mixtures as an internal standard for quantification.
Product formation was quantitated by calculating decrease of the area of the remaining substrate in comparison to the substrate peak area in the control with no enzyme added, and the ratio of peak areas to internal standard were fitted into a calibration curve to determine product concentrations.

## Nc1cc(Cl)ccc1C(=O)CC(N)C(=O)O [Compound 1, L-4-chlorokynurenine]
Tar14
  Enzyme assays, % conversion, Tar14, Br^−: 5%
  Enzyme assays, % conversion, Tar14, Cl^−: <1%

## Nc1ccccc1C(=O)C[C@H](N)C(=O)O [Compound 5, L-kynurenine]
Tar14
  Enzyme assays, % conversion, Tar14, Br^−: 30%
  Enzyme assays, % conversion, Tar14, Cl^−: 30%

## N[C@@H](Cc1c[nH]c2cc(Cl)ccc12)C(=O)O [Compound 7, L-6-Chlorotryptophan]
Tar13
  Conversion/activity as substrate for Tar13: complete conversion
  Enzyme assays, % conversion, Tar13: 100%
Tar16; Tar16 added to Tar13 reaction
  Conversion in coupled Tar13/Tar16 reaction: full conversion
Tar16
  Enzyme assays, % conversion, Tar16: 100%
Tar14
  Enzyme assays, % conversion, Tar14, Br^−: <5%
[1]; S. coelicolor M1146-tarM1Δtar14 mutant fed with compound
  Chemical complementation of taromycin production: restored taromycin production
[1]
  Feeding, % incorporation, A1 + A13 domain: 100%

## N[C@@H](Cc1c[nH]c2ccc(Br)cc12)C(=O)O [Compound 8, L-5-Bromotryptophan]
Tar13
  Enzyme assays, % conversion, Tar13: <1%
Tar16
  Enzyme assays, % conversion, Tar16: 100%
Tar14
  Enzyme assays, % conversion, Tar14, Cl^−: <1%
[1]
  Feeding, % incorporation, A1 domain: 50%

## N[C@@H](Cc1c[nH]c2cc(Br)ccc12)C(=O)O [Compound 9, L-6-bromotryptophan]
Tar13
  Enzyme assays, % conversion, Tar13: 100%
Tar16
  Enzyme assays, % conversion, Tar16: 100%
Tar14
  Enzyme assays, % conversion, Tar14, Br^−: <1%
[1]
  Feeding, % incorporation, A1 + A13 domain: 20%

## N[C@H](Cc1c[nH]c2ccccc12)C(=O)O [Compound 11, D-tryptophan]
Tar13
  Enzyme assays, % conversion, Tar13: <1%
Tar16
  Enzyme assays, % conversion, Tar16: 40%
Tar14
  Enzyme assays, % conversion, Tar14, Br^−: 20%
  Enzyme assays, % conversion, Tar14, Cl^−: 15%

## N[C@@H](Cc1c[nH]c2cccc(Br)c12)C(=O)O [Compound 12, L-4-bromotryptophan]
Tar14
  Enzyme assays, % conversion, Tar14, Br^−: <5%
  Enzyme assays, % conversion, Tar14, Cl^−: <1%

## N[C@@H](Cc1c[nH]c2ccc(Cl)cc12)C(=O)O [Compound 14, D/L-5-chlorotryptophan]
Tar13
  Enzyme assays, % conversion, Tar13: <1%
Tar16
  Enzyme assays, % conversion, Tar16: 100%
Tar14
  Enzyme assays, % conversion, Tar14, Br^−: <1%
  Enzyme assays, % conversion, Tar14, Cl^−: <1%
[1]
  Feeding, % incorporation, A1 domain: 30%

## N[C@@H](Cc1c[nH]c2cccc(F)c12)C(=O)O [Compound 15, D/L-4-fluorotryptophan]
Tar14
  Enzyme assays, % conversion, Tar14, Br^−: 15%
  Enzyme assays, % conversion, Tar14, Cl^−: 10%
[1]
  Feeding, % incorporation, A1 + A13 domain: 15%
  Feeding, % incorporation, A1 domain: 15%

## N[C@@H](Cc1c[nH]c2cc(F)ccc12)C(=O)O [Compound 16, D/L-6-fluorotryptophan]
Tar13
  Enzyme assays, % conversion, Tar13: 5%
Tar16
  Enzyme assays, % conversion, Tar16: 100%
Tar14
  Enzyme assays, % conversion, Tar14, Br^−: 25%
  Enzyme assays, % conversion, Tar14, Cl^−: 25%
[1]
  Feeding, % incorporation, A1 + A13 domain: 90%
  Feeding, % incorporation, A1 domain: <5%

## Cc1cccc2[nH]cc(C[C@H](N)C(=O)O)c12 [Compound 17, D/L-4-methyltryptophan]
Tar14
  Enzyme assays, % conversion, Tar14, Br^−: 75%
  Enzyme assays, % conversion, Tar14, Cl^−: 100%
[1]
  Feeding, % incorporation, A1 domain: 40%

## Cc1ccc2[nH]cc(C[C@H](N)C(=O)O)c2c1 [Compound 18, D/L-5-methyltryptophan]
Tar13
  Enzyme assays, % conversion, Tar13: <1%
Tar16
  Enzyme assays, % conversion, Tar16: 70%
Tar14
  Enzyme assays, % conversion, Tar14, Br^−: 25%
  Enzyme assays, % conversion, Tar14, Cl^−: 50%
[1]
  Feeding, % incorporation, A1 domain: 35%

## NC(Cc1c[nH]c2ccc([N+](=O)[O-])cc12)C(=O)O [Compound 21, D/L-5-NO2-Trp]
[1]
  Feeding, % incorporation, A1 domain: 60%

## NCCc1c[nH]c2ccc(O)cc12 [Compound 22, serotonine]
[2]
  Conversion by any of the enzymes: not converted by any of the enzymes

## N[C@@H](Cc1ccc(O)cc1)C(=O)O [Compound 23, L-tyrosine]
[2]
  Conversion by any of the enzymes: not converted by any of the enzymes

## N[C@@H](Cc1ccccc1)C(=O)O [Compound 24, L-phenylalanine]
[2]
  Conversion by any of the enzymes: not converted by any of the enzymes

## L-5-CH3O-Trp [Compound 19]
Tar13
  Enzyme assays, % conversion, Tar13: <1%
Tar16
  Enzyme assays, % conversion, Tar16: 100%
Tar14
  Enzyme assays, % conversion, Tar14, Br^−: <5%
  Enzyme assays, % conversion, Tar14, Cl^−: <1%
[1]
  Feeding, % incorporation, A1 domain: 15%

## L-5-OH-Trp [Compound 20]
Tar14
  Enzyme assays, % conversion, Tar14, Br^−: <1%
  Enzyme assays, % conversion, Tar14, Cl^−: 5%
[1]
  Feeding, % incorporation, A1 domain: 10%

## L-7-Br-Trp [Compound 13]
Tar14
  Enzyme assays, % conversion, Tar14, Br^−: 100%
  Enzyme assays, % conversion, Tar14, Cl^−: 100%
[1]
  Feeding, % incorporation, A1 domain: <5%

B1: Saccharomonospora sp. CNQ-490 Tar13 (tryptophan 2,3-dioxygenase), wild type, SEQ ID NO: 1 (expressed SEQ ID NO: 2) (Saccharomonospora piscinae) (protein)
chain: MTERTATRTEPAYGEILRLDELLELACVNDEADRALFLSAHQACEIWFAVVLRHLEDVTDALSLDDGATAAELLERLPRIITVIIEHFEVLGTLKPEAFDRIRADLGSSSGFQSVQYREIEYLCGARDTRFLNTAGFRDRDRRRLRERLAKRSLSNVFLEYRGRAGDRDACRISDALHEFDDSVRALRLRHAGIAELFLGSIPGTAGTAGAAYLRRSASRTLFPELFDRRASGTGG
[3]
  Vmax: 0.061 ± 0.006 µM/s
  kcat: 0.03 s⁻¹ and 0.031 ± 0.003 s⁻¹
